Assay results reported in patent US20130072506A1, “6,8-DISUBSTITUTED PURINE COMPOSITIONS” (priority 2011, published 2013).

Columns and labels:
[1] = system: osteosarcoma cell line HOS; test: In vitro cytotoxic activity (metabolisation of Calcein AM); type: cell-based, human; settings: Homo sapiens, HOS cells, 72 hours incubation, called GI50, read-out: Cell line tested/IC50 (μmol/L) HOS
Text: (§1) In vitro Cytotoxic Activity (Metabolisation of Calcein AM). Because toxic compounds negatively influence metabolic processes of cells, many standard cytotoxicity assays are based on measurement of metabolisation rate of various artificial substrates. Resulting product is then quantified, for example, by means of spectrometry. The assays can be easily modified for use in 96-well plates. For evaluation of cytotoxicity of the 6,8-disubstituted purines of this invention, a microtiter assay based on quantification of metabolisation of Calcein AM was used. The assay is widely used in drug screening programs and in chemosensitivity testing. In live cells, Calcein AM is enzymatically hydrolysed and accumulation of resulting calcein is manifested by green fluorescence.
(§2) The following human cell lines were used for routine screening of the compounds: normal diploid fibroblasts BJ, T-lymphoblastic leukemia cell line CEM, promyelocytic leukemia cell line HL-60, erytroid leukemia cell line K-562, breast carcinoma cell line MCF-7, osteosarcoma cell line HOS and melanoma cell line G-361. The cells were maintained in Nunc/Corning 80 cm^2 plastic tissue culture flasks and cultured in cell culture medium (DMEM with 5 g/l glucose, 2 mM glutamine, […] penicillin, 100 mmg/ml streptomycin, 10% fetal calf serum and sodium bicarbonate).
(§3) The cell suspensions were prepared and diluted according to the particular cell type and the expected target cell density (2.500-30.000 cells per well based on cell growth characteristics) and pipetted (80 μl) into 96-well plates. Inoculates were allowed a pre-incubation period of 24 hours at 37° C. and 5% CO2 for stabilization. Tested compound was added in total volume of […] of water at time zero. Usually, test compound was evaluated at six 3-fold dilutions. In routine testing, the highest concentration tested was 100 μM, but it could have been adjusted because of limited solubility of a compound. All drug concentrations were tested in triplicates.
(§4) Incubations of cells with the test compounds lasted for 72 hours at 37° C., in 5% CO2 atmosphere and 100% humidity. At the end of incubation period Calcein AM in PBS was added into final concentration of 1 μg/ml. After another 1 hour of incubation fluorescence (FD) was measured with the Labsystem FIA Reader Fluoroscan Ascent (UK). Growth inhibition (GI) was estimated using the following equitation: GI=(mean FDdrug exposed wells−mean FDblank)/(mean FDcontrol wells−mean FDblank)×100%. The GI50 value, the drug concentration causing 50% reduction of Calcein AM conversion, was calculated from the obtained dose response curves.

[2] = system: breast carcinoma cell line MCF-7; test: as above; type: cell-based, human; settings: Homo sapiens, MCF7 cells, 72 hours incubation, called GI50, read-out: Cell line tested/IC50 (μmol/L) MCF7
Text: as §1, §2, §3, §4

[3] = system: erytroid leukemia cell line K-562; test: as above; type: cell-based, human; settings: Homo sapiens, K562, K-562 cells, 72 hours incubation, called GI50, read-out: Cell line tested/IC50 (μmol/L) K-562
Text: as §1, §2, §3, §4

melanoma cell line G-361 = test: as above; type: cell-based, human; settings: Homo sapiens, G-361 cells, 72 hours incubation, called GI50, read-out: Cell line tested/IC50 (μmol/L) G-361
Text: as §1, §2, §3, §4

[4] = system: T-lymphoblastic leukemia cell line CEM; test: as above; type: cell-based, human; settings: Homo sapiens, CCRF-CEM, CEM cells, 72 hours incubation, called GI50, read-out: Cell line tested/IC50 (μmol/L) CEM
Text: as §1, §2, §3, §4

[5] = system: normal diploid fibroblasts BJ; test: as above; type: cell-based, human; settings: Homo sapiens, BJ cells, 72 hours incubation, called GI50, read-out: Cell line tested/IC50 (μmol/L) BJ
Text: as §1, §2, §3, §4

[6] = system: cytokinin-dependent tobacco callus; test: Growth of cytokinin-dependent tobacco callus (plant cell division); type: cell-based, Nicotiana tabacum L. cv. Wisconsin 38; settings: for Activity (%): at concentration with highest activity, activity of kinetin set at 100%
Method: The effect on plant cell division. Cytokinin-dependent tobacco callus Nicotiana tabacum L. cv. Wisconsin 38 was maintained at 25° C. in darkness on modified MS medium, containing 4 μmol/l nicotinic acid, 2.4 μmol/l pyridoxine hydrochloride, 1.2 μmol/l thiamine, 26.6 μmol/l glycine, 1.37 μmol/l glutamine, 1.8 μmol/1 myo-inositol, 30 g/l of sucrose, 8 g/l of agar, 5.37 μmol/l NAA and 0.5 μmol/l BAP. Subcultivation was carried out every three weeks. Fourteen days before the bioassay, the callus tissue was transferred to the media without BAP. Biological activity was determined from the increase in fresh callus weight after four weeks of cultivation. Five replicates were prepared for each cytokinin concentration and the entire test was repeated twice. From the obtained data, the concentration with highest activity was selected for each compound tested. Relative activity at this concentration was calculated (see Table 4 below).
The cytokinins to be tested were dissolved in dimethylsulfoxide (DMSO) and the solution brought up to 10^−3M with distilled water.

[7] = system: Amaranthus caudatus cotyledon/hypocotyl explants; test: Amaranthus bioassay (betacyanin content); type: in vivo, Amaranthus caudatus var. atropurpurea; settings: for Activity (%): at concentration with highest activity, activity of kinetin set at 100%; for Concentration with highest activity: betacyanin content, 48 hours in darkness
Method: Testing of Novel Compounds in Amaranthus bioassay. Standard Amaranthus bioassay was performed with several modifications. The seeds of Amaranthus caudatus var. atropurpurea were surface-sterilized in 10% N-chlorobenzene sulfonamide (w/v) for 10 min and washed 5 times in deionized water. They were placed in 14 cm Petri dishes containing paper tissues saturated with deionized water. After 72 hours of cultivation at 25° C. in darkness, the roots of the seedlings were cut off. The explants, consisting of two cotyledons and hypocotyls, were placed in 5 cm Petri dishes on two layers of filter paper soaked in 1 ml of incubation medium containing 10 μmol Na2HPO4—KH2PO4, pH 6.8, 5 μmol tyrosine and the cytokinin to be tested. There were 20 explants per dish. The procedure was carried out under a green safe light in a darkroom. After a 48 hours of incubation at 25° C. in darkness, betacyanin was extracted by freezing the explants in 4 ml 3.33 μM acetic acid. The concentration of betacyanin was determined by comparing the absorbance at 537 nm and 620 nm as follows: DA=A537nm−A620nm. From the obtained data, the concentration with highest activity was selected for each compound tested. Relative activity of the compound at this concentration was calculated (see Table 3 below). […] The values shown in Table 3 are means of five replicates and the entire test was repeated twice.
The cytokinins to be tested were dissolved in dimethylsulfoxide (DMSO) and the solution brought up to 10^−3 M with distilled water.

[8] = system: Human diploid fibroblast BJ; test: In vitro cytotoxic activity (metabolisation of MTT); type: cell-based; settings: 72 hours, BJ passage 18-22
Method: In vitro Cytotoxic Activity (metabolisation of Mtt). MTT ([…]) assay is a standard colorimetric assay for evaluation of cytotoxicity. Mitochondrial dehydrogenase activity converts yellow MTT into violet formazan which is measured by means of spectrometry.
Human diploid fibroblast BJ (passage 18-22) were seeded into 96-well plate (5.000 cells per well). After 6 hours cultivation medium (DMEM with 5 g/l glucose, 2 mM glutamine, 100 U/ml penicillin, 100 mmg/ml streptomycin, 10% fetal calf serum and sodium bicarbonate) was replaced with the cultivation medium containing test compounds in concentration range of 0-200 μM. Highest concentration was adjusted if the solubility of the compound was limiting. Every concentration was tested in pentaplicate. MTT was added to the cells after 72 hours incubation (final concentration 0.5 mg/ml) and incubation continued for another 3 hours. MTT was solubilised by DMSO and absorbance at 570 nm was measured. Growth inhibition (GI) was estimated using the following equitation: GI=(mean A drug exposed wells−mean Ablank/mean Acontrol wells−mean Ablank)×100%. The GI20 value, the drug concentration causing 20% decrease in mitochondrial dehydrogenase activity, was calculated from the obtained dose response curves.

| Structure (SMILES) | melting point [°C] | IC50 [1] [µmol/L] | IC50 [2] [µmol/L] | IC50 [3] [µmol/L] | IC50 (melanoma cell line G-361) [µmol/L] | IC50 [4] [µmol/L] | IC50 [5] [µmol/L] | Activity (%) [6] [%] | Activity (%) [7] [%] | Concentration with highest activity [7] | GI20 [8] [µmol/L] | Concentration with highest activity ([6]; increase in fresh callus weight after four weeks) |
| --- | --- | --- | --- | --- | --- | --- | --- | --- | --- | --- | --- | --- |
| COc1nc2ncnc(NCc3ccccc3)c2[nH]1 [Compound 121, 6-Benzylamino-8-methoxypurine] |  | > 50 | > 50 | > 50 | > 50 | > 50 | > 50 | 129.11 | 121.15 | 10^−4 mol/l |  |  |
| Nc1nc2ncnc(NCc3ccccc3)c2[nH]1 [Compound 83, 8-Amino-6-benzylaminopurine] | 223 to 226 | > 50 | > 50 | > 50 | > 50 | > 50 | > 50 | 197.08 |  |  | >100 |  |
| C/C(=C\CNc1ncnc2nc(N(C)C)[nH]c12)CO [Example 7 (23), (E)-8-Dimethylamino-6-(4-hydroxy-3-methylbut-2-en-1-ylamino)purine] | 245 to 249 |  |  |  |  |  |  |  |  |  |  |  |
| Oc1nc2ncnc(NCc3ccccc3)c2[nH]1 [Compound 167, 6-Benzylamino-8-hydroxypurine] | 243 to 247 | > 50 | > 50 | > 50 | > 50 | > 50 | > 50 |  |  |  |  |  |
| COC(=O)c1nc2ncnc(NCc3ccccc3)c2[nH]1 [Compound 188] |  |  |  |  |  |  |  | 148.91 | 122.51 | 10^−4 mol/l |  | 10^−6 mol/l |
| CSc1nc2ncnc(NCc3ccccc3)c2[nH]1 [Compound 148, 6-Benzylamino-8-methylsulphanylpurine] | 234 to 237 |  |  |  |  |  |  | 109.36 |  |  |  |  |
| NCCCNc1nc2ncnc(NCc3ccccc3)c2[nH]1 [Compound 209, 8-(3-Aminopropylamino)-6-benzylaminopurine] | 170 to 173 | > 50 | > 50 | > 50 | > 50 | > 50 | > 50 | 150.01 |  |  | >100 |  |
| CC(C)=CCNc1ncnc2nc(N)[nH]c12 [Compound 87, 6-(3-methylbut-2-en-1-ylamino)-8-aminopurine] |  | > 50 | > 50 | > 50 | > 50 | > 50 | > 50 | 150.44 | 171.36 | 10^−4 mol/l | >100 |  |
| NCc1nc2ncnc(NCc3ccccc3)c2[nH]1 [Compound 181, 8-Aminomethyl-6-benzylaminopurine] | 187 to 189 | > 50 | > 50 | > 50 | > 50 | > 50 | > 50 |  |  |  |  |  |

Second part, led by results:

| melting point [°C] | Structure (SMILES) | IC50 [1] [µmol/L] | IC50 [2] [µmol/L] | IC50 [3] [µmol/L] | IC50 (melanoma cell line G-361) [µmol/L] | IC50 [4] [µmol/L] | IC50 [5] [µmol/L] | Activity (%) [6] [%] | Activity (%) [7] [%] | Concentration with highest activity [7] | GI20 [8] [µmol/L] | Concentration with highest activity ([6]; increase in fresh callus weight after four weeks) |
| --- | --- | --- | --- | --- | --- | --- | --- | --- | --- | --- | --- | --- |
| 196 to 198 | COc1nc2ncnc(NCc3ccco3)c2[nH]1 [Compound 120, 6-Furfurylamino-8-methoxypurine] | > 50 | > 50 | > 50 | > 50 | > 50 | > 50 |  |  |  |  |  |
| 245 to 246 | CN(C)c1nc2ncnc(NCc3ccco3)c2[nH]1 [Compound 61, 8-Dimethylamino-6-furfurylaminopurine] |  |  |  |  |  |  |  |  |  |  |  |
| 182 to 184 | OCCOc1nc2ncnc(NCc3ccco3)c2[nH]1 [Example 7 (18), 6-Furfurylamino-8-(2-hydroxyethyloxy)purine] |  |  |  |  |  |  |  |  |  |  |  |
| 246 to 249 | CC(C)=CCNc1ncnc2nc(N(C)C)[nH]c12 [Example 7 (19), 8-Dimethylamino-6-(3-methylbut-2-en-1-ylamino)purine] |  |  |  |  |  |  |  |  |  |  |  |
